# Data taken from patent US9701693B2, “Selective glycosidase inhibitors and uses thereof” (Alectos Therapeutics Inc., priority 2011, dated 2017).
# Tests used:
# human O-GlcNAcase = human O-GlcNAcase (Homo sapiens (Human), UniProt O60502); experiment: Fluorescence-based assay for determination of KI values for inhibition of O-GlcNAcase activity; assay type: biochemical; conditions: purified human O-GlcNAcase 0.7 nM, 2 mM 4-Methylumbelliferyl N-acetyl-β-D-glucosaminide, pH 7.0, Cheng-Prusoff; read-out: Fluorescence-based hOGA Ki
# Procedure: Assay for Determination of KIValues for Inhibition of O-GlcNAcase Activity Experimental procedure for kinetic analyses: Enzymatic reactions were carried out in a reaction containing 50 mM NaH2PO4, 100 mM NaCl and 0.1% BSA (pH 7.0) using 2 mM 4-Methylumbelliferyl N-acetyl-β-D-glucosaminide dihydrate (Sigma M2133) dissolved in ddH2O, as a substrate. The amount of purified human O-GlcNAcase enzyme used in the reaction was 0.7 nM. Test compound of varying concentrations was added to the enzyme prior to initiation of the reaction. The reaction was performed at room temperature in a 96-well plate and was initiated with the addition of substrate. […] The slope of product production was determined for each concentration of compound tested and plotted, using standard curve fitting algorithms for sigmoidal dose response curves. The values for a four parameter logistic curve fit of the data were determined.
# [1] = system: O-GlcNAcase in rat PC-12 cells; experiment: Cell-based ELISA for cellular O-GlcNAcase inhibition (O-GlcNAcylated protein, RL-2 antibody); conditions: 24 h treatment, O-GlcNAcylated protein detected with RL-2 antibody
# Description: Assay for Determination of Cellular Activity for Compounds that Inhibit O-GlcNAcase Activity
# Inhibition of O-GlcNAcase, which removes O-GlcNAc from cellular proteins, results in an increase in the level of O-GlcNAcylated protein in cells. An increase in O-GlcNAcylated protein can be measured by an antibody, such as RL-2, that binds to O-GlcNAcylated protein. The amount of O-GlcNAcylated protein:RL2 antibody interaction can be measured by enzyme linked immunosorbant assay (ELISA) procedures.
# A variety of tissue culture cell lines, expressing endogenous levels of O-GlcNAcase, can be utilized; examples include rat PC-12, and human U-87, or SK-N-SH cells. […] If desired, the total protein concentration of samples was determined using 20 μL of the sample using the BCA method.
# The ELISA portion of the assay was performed in a black Maxisorp 96-well plate that was coated overnight at 4° C. with 100 μL/well of the cell lysate (1:10 dilution of the lysate with PBS containing protease inhibitors, phosphatase inhibitors, and PMSF). […] The detection reaction was incubated for 15 minutes at room temperature and then read with excitation at 530 nm and emission at 590 nm
# The amount of O-GlcNAcylated protein, as detected by the ELISA assay, was plotted for each concentration of test compound using standard curve fitting algorithms for sigmoidal dose response curves. […]
# Sequence of human O-GlcNAcase (O60502 whole entry): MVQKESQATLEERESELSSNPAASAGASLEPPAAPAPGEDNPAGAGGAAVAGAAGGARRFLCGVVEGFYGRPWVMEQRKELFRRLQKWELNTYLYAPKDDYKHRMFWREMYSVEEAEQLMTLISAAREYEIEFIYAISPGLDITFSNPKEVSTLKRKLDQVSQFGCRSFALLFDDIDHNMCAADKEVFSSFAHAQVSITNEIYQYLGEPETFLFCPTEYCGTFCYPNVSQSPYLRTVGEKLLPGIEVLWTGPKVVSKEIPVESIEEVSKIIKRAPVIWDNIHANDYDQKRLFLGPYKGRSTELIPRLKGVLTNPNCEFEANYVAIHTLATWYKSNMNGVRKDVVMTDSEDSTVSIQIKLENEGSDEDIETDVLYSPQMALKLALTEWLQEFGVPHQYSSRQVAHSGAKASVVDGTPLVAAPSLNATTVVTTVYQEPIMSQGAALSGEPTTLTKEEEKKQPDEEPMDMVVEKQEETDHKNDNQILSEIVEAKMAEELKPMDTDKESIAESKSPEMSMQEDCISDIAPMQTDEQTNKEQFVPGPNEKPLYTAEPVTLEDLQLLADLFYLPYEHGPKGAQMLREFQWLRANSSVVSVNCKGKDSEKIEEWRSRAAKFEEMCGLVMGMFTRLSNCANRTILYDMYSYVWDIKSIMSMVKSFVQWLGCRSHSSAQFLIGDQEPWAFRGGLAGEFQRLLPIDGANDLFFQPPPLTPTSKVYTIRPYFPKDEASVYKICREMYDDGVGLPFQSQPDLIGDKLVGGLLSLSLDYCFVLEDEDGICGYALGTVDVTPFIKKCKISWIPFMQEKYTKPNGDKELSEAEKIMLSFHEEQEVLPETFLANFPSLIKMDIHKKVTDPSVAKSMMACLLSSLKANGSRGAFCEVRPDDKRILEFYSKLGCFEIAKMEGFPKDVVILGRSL
Compound,Ki (human O-GlcNAcase) [µM],EC50 [1] [µM]
"CN(C)C1=N[C@@H]2[C@@H](O)[C@@H](O)[C@@H](CO)O[C@@H]2S1 [Example 2, (3aR,5R,6R,7R,7aR)-2-(dimethylamino)-5-(hydroxymethyl)-5,6,7,7a-tetrahydro-3aH-pyrano[3,2-d]thiazole-6,7-diol]",0.0286,
"CNC1=N[C@@H]2[C@H](O)[C@H](O)[C@@H](CO)O[C@@H]2S1 [Example 4, (3aR,5R,6S,7S,7aR)-5-(hydroxymethyl)-2-(methylamino)-5,6,7,7a-tetrahydro-3aH-pyrano[3,2-d]thiazole-6,7-diol]",,0.109
